# Test results published in ChEMBL document CHEMBL5214960 (J Med Chem, 2022).
# Legend:
# [1] = Cmax in CD-1 mouse plasma at 2 mg/kg, iv measured after 8 hrs by LC-MS/MS analysis; type: ADME, organism-based; set-up: time 8 hrs, dose 2 mg/kg, route iv
# [2] = biological target: Dual specificity protein phosphatase 23 (Homo sapiens, UniProt Q9BVJ7); test: Inhibition of VHZ (unknown origin)
# [3] = biological target: Dual specificity protein phosphatase CDC14A (Homo sapiens, UniProt Q9UNH5); test: Inhibition of CDC14A (unknown origin)
# [4] = biological target: Tyrosine-protein phosphatase non-receptor type 22 (Homo sapiens, UniProt Q9Y2R2); test: Inhibition of LYP (unknown origin)
# [5] = biological target: CYP3A4 (Homo sapiens, UniProt P08684); test: Inhibition of human hepatic CYP3A4 using midazolam as substrate measured after 3 mins by LC-MS analysis relative to control; type: ADME, tissue-based; set-up: concentration or dose not given beside the values; details: human hepatic CYP3A4 (liver), probe midazolam
# [6] = Unbound Cmax in plasma of Sprague-Dawley rat at 30 mg/kg, po measured after 24 hrs by LC-MS/MS analysis; type: ADME, organism-based; details: in vivo
# [7] = Aqueous solubility of compound at pH 6 by HPLC analysis; type: physicochemical; details: buffer
# [8] = AUC(0 to 8 hrs) in CD-1 mouse plasma at 2 mg/kg, iv measured after 8 hrs by LC-MS/MS analysis; type: ADME, organism-based; set-up: dose 2 mg/kg, time 8 hrs, route iv; details: in vivo
# [9] = biological target: Tyrosine-protein phosphatase non-receptor type 11 (Homo sapiens, UniProt Q06124); test: Inhibition of SHP2 (unknown origin)
# [10] = Unbound Cmax in plasma of Sprague-Dawley rat at 3 mg/kg, po measured after 24 hrs by LC-MS/MS analysis; type: ADME, organism-based; details: in vivo
# [11] = Metabolic stability in dog hepatic microsome at 4 uM measured after 30 mins by LC-MS analysis; type: ADME, Canis lupus familiaris; details: liver microsomes, read-out: Stability
# [12] = biological target: Tyrosine-protein phosphatase non-receptor type 12 (Homo sapiens, UniProt Q05209); test: Inhibition of PEST(unknown origin)
# [13] = AUC(0 to 12 hrs) in Sprague-Dawley rat plasma at 30 mg/kg, po measured after 24 hrs by LC-MS/MS analysis; type: ADME, organism-based; set-up: time 24 hrs, dose 30 mg/kg, route po; details: in vivo
# [14] = Half life in CD-1 mouse plasma at 2 mg/kg, iv measured after 8 hrs by LC-MS/MS analysis; type: ADME, organism-based; details: mouse, in vivo, iv, 2 mg/kg, 8 h
# [15] = Metabolic stability in human hepatic microsome at 4 uM measured after 30 mins by LC-MS analysis; type: ADME; details: liver microsomes, read-out: Stability
# [16] = Half life in CD-1 mouse plasma at 10 mg/kg, po measured after 8 hrs by LC-MS/MS analysis; type: ADME, organism-based; details: in vivo
# [17] = biological target: Receptor-type tyrosine-protein phosphatase F (Homo sapiens, UniProt P10586); test: Inhibition of LAR(unknown origin)
# Chain of Dual specificity protein phosphatase CDC14A (Q9UNH5 whole entry): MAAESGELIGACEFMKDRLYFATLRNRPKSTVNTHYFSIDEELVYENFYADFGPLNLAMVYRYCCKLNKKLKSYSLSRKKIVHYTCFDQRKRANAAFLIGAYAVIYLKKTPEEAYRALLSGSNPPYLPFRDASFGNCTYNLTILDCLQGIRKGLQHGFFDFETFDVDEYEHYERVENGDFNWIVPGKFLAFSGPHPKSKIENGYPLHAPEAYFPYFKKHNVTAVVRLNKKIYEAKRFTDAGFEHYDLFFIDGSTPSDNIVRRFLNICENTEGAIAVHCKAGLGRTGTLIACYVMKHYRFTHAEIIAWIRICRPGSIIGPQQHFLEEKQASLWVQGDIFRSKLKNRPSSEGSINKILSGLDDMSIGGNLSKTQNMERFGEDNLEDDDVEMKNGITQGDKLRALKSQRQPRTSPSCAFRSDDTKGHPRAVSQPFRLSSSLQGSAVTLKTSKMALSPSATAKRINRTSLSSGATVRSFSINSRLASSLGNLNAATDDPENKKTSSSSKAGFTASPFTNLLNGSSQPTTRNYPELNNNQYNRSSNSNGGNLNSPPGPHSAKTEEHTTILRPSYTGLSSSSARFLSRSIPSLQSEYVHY
# Chain of Tyrosine-protein phosphatase non-receptor type 22 (Q9Y2R2 whole entry): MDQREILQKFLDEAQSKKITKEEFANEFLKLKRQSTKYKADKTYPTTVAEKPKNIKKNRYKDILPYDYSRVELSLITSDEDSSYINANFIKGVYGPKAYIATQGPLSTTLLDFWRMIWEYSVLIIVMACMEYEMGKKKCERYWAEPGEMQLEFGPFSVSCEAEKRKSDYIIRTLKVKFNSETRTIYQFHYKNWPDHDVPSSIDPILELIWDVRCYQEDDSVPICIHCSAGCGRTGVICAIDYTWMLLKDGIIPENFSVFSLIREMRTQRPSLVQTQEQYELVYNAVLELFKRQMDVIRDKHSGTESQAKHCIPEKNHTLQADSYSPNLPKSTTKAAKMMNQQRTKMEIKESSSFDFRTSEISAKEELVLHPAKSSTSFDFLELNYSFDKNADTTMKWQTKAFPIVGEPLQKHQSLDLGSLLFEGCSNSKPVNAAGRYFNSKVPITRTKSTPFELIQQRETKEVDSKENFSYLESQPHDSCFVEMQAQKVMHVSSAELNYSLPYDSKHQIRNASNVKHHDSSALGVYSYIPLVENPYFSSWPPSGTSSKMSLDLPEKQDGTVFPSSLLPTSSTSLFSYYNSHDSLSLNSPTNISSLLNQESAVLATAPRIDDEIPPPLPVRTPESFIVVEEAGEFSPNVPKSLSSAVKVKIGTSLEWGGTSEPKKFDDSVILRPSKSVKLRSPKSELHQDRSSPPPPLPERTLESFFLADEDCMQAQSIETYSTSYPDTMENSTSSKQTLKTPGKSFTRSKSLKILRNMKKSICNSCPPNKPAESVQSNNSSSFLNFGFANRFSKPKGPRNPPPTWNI
# Chain of CYP3A4 (P08684 whole entry): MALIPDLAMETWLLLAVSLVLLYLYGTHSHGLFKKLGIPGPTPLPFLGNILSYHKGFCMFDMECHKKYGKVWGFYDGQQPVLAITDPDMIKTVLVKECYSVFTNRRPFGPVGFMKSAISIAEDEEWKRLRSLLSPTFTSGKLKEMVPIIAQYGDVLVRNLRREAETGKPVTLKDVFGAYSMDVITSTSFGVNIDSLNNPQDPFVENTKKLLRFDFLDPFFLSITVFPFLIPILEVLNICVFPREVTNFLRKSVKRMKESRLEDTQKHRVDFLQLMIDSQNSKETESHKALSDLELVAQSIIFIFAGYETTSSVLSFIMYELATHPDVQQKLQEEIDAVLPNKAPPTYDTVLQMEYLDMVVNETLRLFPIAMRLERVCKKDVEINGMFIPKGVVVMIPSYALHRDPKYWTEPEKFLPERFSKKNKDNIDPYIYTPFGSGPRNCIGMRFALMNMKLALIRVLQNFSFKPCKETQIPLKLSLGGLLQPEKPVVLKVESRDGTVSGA
# Chain of Tyrosine-protein phosphatase non-receptor type 11 (Q06124 whole entry): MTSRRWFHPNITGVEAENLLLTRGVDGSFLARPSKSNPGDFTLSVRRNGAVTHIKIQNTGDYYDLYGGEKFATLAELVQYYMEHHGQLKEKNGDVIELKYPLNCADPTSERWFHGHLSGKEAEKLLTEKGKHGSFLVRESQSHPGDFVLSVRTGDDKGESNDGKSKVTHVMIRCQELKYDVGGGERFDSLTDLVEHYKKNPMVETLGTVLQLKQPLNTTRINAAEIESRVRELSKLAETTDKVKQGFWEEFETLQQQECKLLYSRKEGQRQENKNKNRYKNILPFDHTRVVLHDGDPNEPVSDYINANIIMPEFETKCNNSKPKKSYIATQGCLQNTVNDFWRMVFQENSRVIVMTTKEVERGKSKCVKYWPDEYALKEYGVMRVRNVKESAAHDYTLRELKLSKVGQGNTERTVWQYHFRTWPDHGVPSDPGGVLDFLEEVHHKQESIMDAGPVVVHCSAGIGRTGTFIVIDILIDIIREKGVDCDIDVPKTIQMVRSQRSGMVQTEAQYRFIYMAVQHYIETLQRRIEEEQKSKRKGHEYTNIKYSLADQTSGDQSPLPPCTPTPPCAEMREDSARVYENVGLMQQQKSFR
# Chain of Tyrosine-protein phosphatase non-receptor type 12 (Q05209 whole entry): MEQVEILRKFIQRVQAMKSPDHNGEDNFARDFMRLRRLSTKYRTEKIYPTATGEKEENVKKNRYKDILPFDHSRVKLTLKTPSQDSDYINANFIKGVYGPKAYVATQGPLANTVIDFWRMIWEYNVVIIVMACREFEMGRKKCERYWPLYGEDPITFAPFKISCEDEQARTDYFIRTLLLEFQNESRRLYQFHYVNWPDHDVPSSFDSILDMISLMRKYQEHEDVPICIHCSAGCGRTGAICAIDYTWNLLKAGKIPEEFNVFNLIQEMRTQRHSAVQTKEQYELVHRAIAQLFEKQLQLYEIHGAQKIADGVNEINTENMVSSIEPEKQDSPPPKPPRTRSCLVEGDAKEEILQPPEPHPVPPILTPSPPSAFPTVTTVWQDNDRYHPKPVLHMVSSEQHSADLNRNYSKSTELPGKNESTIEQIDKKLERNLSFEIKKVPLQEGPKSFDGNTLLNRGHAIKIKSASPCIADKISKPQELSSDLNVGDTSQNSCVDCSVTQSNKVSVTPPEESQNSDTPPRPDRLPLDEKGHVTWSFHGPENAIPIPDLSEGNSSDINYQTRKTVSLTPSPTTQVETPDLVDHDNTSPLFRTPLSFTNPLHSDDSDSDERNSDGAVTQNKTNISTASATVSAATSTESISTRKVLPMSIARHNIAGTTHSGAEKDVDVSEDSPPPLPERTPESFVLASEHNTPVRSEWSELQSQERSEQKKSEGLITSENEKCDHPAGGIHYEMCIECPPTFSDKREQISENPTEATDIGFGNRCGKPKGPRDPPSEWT
# Chain of Dual specificity protein phosphatase 23 (Q9BVJ7 whole entry): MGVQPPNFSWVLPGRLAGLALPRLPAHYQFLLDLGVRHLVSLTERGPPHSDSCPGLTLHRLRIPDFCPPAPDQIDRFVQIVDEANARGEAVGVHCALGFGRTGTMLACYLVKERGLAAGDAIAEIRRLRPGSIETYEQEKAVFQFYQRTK
smiles,measurement,setting,value
Cc1c(Br)cc(NC(=O)NS(=O)(=O)O)cc1Br,Cmax,[1],13.4 µM
same,IC50,[2],> 10 µM
same,IC50,[3],> 10 µM
same,IC50,[4],> 10 µM
same,inhibition at 0.05 h,[5],0%
same,fCmax,[6],158 nM
same,solubility,[7],9.5 µg/mL
same,AUC,[8],15.1 µM·h
same,IC50,[9],> 10 µM
same,fCmax,[10],21 nM
same,"remaining at 0.5 h, 4 µM",[11],38%
same,IC50,[12],> 10 µM
same,AUC,[13],42.8 µM·h
same,t1/2,[14],1.41 h
same,"remaining at 0.5 h, 4 µM",[15],21%
same,t1/2,[16],4.2 h
same,IC50,[17],> 10 µM
